# Measured values: patent publication US20250303006A1, “BIOCOMPATIBLE ANTISEPTIC COMPOSITION CONTAINING 9-HYDROXYCALABAXANTHONE AND/OR RELATED XANTHONES” (UNIVERSITAT DE LES ILLES BALEARS, priority 2022, published 2025)
# How the values were obtained:
# [1] = tested on: human gingival fibroblast cells; test: LDH cytotoxicity in immortalized human gingival fibroblasts; type: cell-based
# Method: Cells were seeded in 48-well plates at a density of 2×10^4 cells/well. When the cells reached confluence, they were treated with different concentrations of HCX, and cytotoxicity was determined.
# 48 hours after seeding the iHGF cells in 48-well plates, cell inflammation was induced by means of adding 1 μg/ml of P. gingivalis lipopolysaccharide (LPS) (InvivoGen, San Diego, CA, USA) and the cells were treated with different concentrations of HCX (0.00002, 0.0002, 0.002%) in a fibroblast medium with 50 μg/ml of ascorbic acid (Sigma-Aldrich, St. Louis, MO, USA) for 48 hours. Images of the cells were taken with a bright field inverted microscope (Nikon Eclipse TS100) before treatment and 24 hours and 48 hours after treatment.
# To estimate the cytotoxicity of the different concentrations of HCX, the presence of lactate dehydrogenase (LDH) in the culture media 48 h after pro-inflammatory stimulation with LPS and treatment with HCX was used as the cell death index. Following the manufacturer's instructions (Cytotoxicity Detection kit, Roche Diagnostics, Mannheim, Germany), LDH activity was determined spectrophotometrically after a 30-minute incubation at room temperature (RT) of 50 μl of culture media and 50 μl of the reaction mixture, measuring nicotinamide adenine dinucleotide (NADH) oxidation at 490 nm in the presence of pyruvate. Results were presented in relation to LDH activity of the media of the cells seeded without treatment (negative control, 0% cell death) and in relation to cells treated with 1% Triton X-100 (positive control, 100% death) using the following equation: Cytotoxicity (%)=[(expected value−negative control)/(positive control−negative control)]×100.
# Different hydrogel formulations with and without 0.05% of HCX (HA, GelMa, Alginate and HPMC) and commercial gel containing 0.2% chlorhexidine and unmodified HA (Periokin Hyaluronic 1%, Laboratorios Kin, Commercial HA 0.2% CHX) were used for studies with gingival fibroblasts and S. epidermidis. Cells and bacteria without hydrogels served as negative control (C−). Gels at a concentration of 5% (v/v) were used for cell and bacterial studies.
# Immortalized human gingival fibroblasts were cultured like in experiment 1 of section 1.2. The cells were treated with different hydrogel formulations with and without 0.05% of HCX (HA, GelMa, Alginate and HPMC) and commercial gel containing 0.2% chlorhexidine and unmodified HA (Periokin Hyaluronic 1%, Laboratorios Kin, commercial HA 0.2% CHX) in a fibroblast medium for 24 hours (n=4). Cell cytotoxicity was measured, like in experiment 1 of section 1.4.
# 16.1. […]
# Immortalized human gingival fibroblasts were cultured like in experiment 1 of section 1.2. […] Cell cytotoxicity was measured, like in experiment 1 of section 1.4.
# S. epidermidis = S. epidermidis culture and proliferation assay; type: cell-based, Staphylococcus epidermidis
# Method: S. epidermidis 4814 (CECT, Valencia, Spain) were grown from frozen stocks in Luria-Bertani (LB) broth (Scharlab, Sentmenat), at 37° C. under aerobic conditions in an orbital shaker (180 rpm). After an overnight incubation, 1 mL of bacterial suspensions were incubated with different concentrations of HCX (0.003, 0.002, 0.001, 0.0002, 0.00002%) for 24 hours at 37° C. under aerobic conditions in an orbital shaker (180 rpm). Bacterial suspension without treatment served as negative control, and CHX at 0.001% served as positive control for bacterial growth inhibition. The optical density (OD) was measured at 600 nm at 0 h, 10 h and 24 h to determine bacterial proliferation (PowerWave Ht, Biotek instruments, Winooski, VT, USA). Bacterial growth rate (μ) was calculated during the exponential growth phase following the equation ln ODt−ln OD0=μ×(t−t0). Live/Dead ratio of bacteria was determined using the LIVE/DEAD BacLight bacterial viability kit (Invitrogen, Thermo Fisher Scientific, Waltham, MA, USA), following manufacturer's instructions. The assays were carried out in triplicate, with two replicates at each condition (n=6). […]
# bacterial plaque biofilm = test: In vitro bacterial plaque biofilm formation from pooled human saliva; type: cell-based; details: 0.05% HCX solution, slides immersed 2 min on days 2 and 3; equal to 0.2% chlorhexidine
# Method: This is an in vitro study using pooled human saliva as a test substrate to compare the ability of 9-hydroxycalabaxanthone (HCX) versus chlorhexidine (CHX) and control to prevent or reduce plaque biofilm buildup.
# Human saliva from different donors was collected and pooled. 15 ml of the pooled saliva supplemented with 0.1% sucrose was pipetted into sterile 40 ml containers and then a glass microscope slide was submerged below 2 cm of saliva in each container and incubated at 37° C. for bacterial biofilm formation. Twice a day the slide was immersed in TSB culture medium. On days 2 and 3, the biofilm was treated with different groups: (1) a solution containing 0.05% 9-hydroxycalabaxanthone (HCX) (n=6), (2) a solution containing 0.2% chlorhexidine (CHX) (n=6), and a solution containing water (C−) (n=6), by immersing the slides for 2 min in the test of the assigned product. […] The removed biofilms were subjected to sonication using three 15 s pulses with a power of 7 W. The homogenized bacterial suspension was used to determine the bacterial viability both by quantification of colony-forming units (CFU) per mL and by LIVE/DEAD assay.
# For the Bacterial viability assay, an aliquot (0.1 mL) of the homogenized bacterial suspension was serially diluted and plated on TSB agar. The plates were incubated in 5% CO2 at 37° C. for 48 h, and then the number of CFU/mL was determined. […]
smiles,measurement,setting,value
"COc1c(O)cc2oc3cc4c(c(O)c3c(=O)c2c1CC=C(C)C)C=CC(C)(C)O4 [HCX, 9-hydroxycalabaxanthone]",cytotoxicity evaluated by activity of lactate dehydrogenase (LDH) released into the medium,"[1]; HCX 0.00002, 0.0002, 0.002%, 48 h, LPS-stimulated iHGF",not observed
same,concentration that can be applied to cells and tissues,[1]; formulated in solution,up to 0.002%
same,bacteria eliminated,"S. epidermidis; 0.001% HCX, 10 h",100%
same,bacteria eliminated,"S. epidermidis; 0.003% HCX, 24 h",80%
same,"plaque biofilm bacteria formation (live/dead ratio, CFU/mL)",bacterial plaque biofilm,reduced plaque biofilm bacteria formation
